Results from article PMC9413568, “Application of COSMO-RS-DARE as a Tool for Testing Consistency of Solubility Data: Case of Coumarin in Neat Alcohols” (Molecules, 2022).

Key:
[1] = parameters: method as in PMID 18583357; settings: dependence on pH; cited from earlier work
[2] = shake-flask solubility of coumarin in neat alcohols, spectrophotometric determination; assay type: physicochemical; settings: mean ± SD, n = 3
Experimental: This solution was then successfully diluted by transferring its fixed amounts to 10 mL volumetric flasks and adding methanol. The obtained series of solutions with decreasing coumarin concentrations was measured spectrophotometrically, and the absorbance values found at 310 nm wavelength were plotted against the corresponding concentration values. Three separate curves were prepared and then averaged, with the resulting linear equation being y = 42.346x + 0.0085. The curve can be characterized by high linearity, with the determination coefficient of R^2 = 0.9997. […] In this study, the shake-flask-type method of solubility determination was used. […] The prepared samples were incubated for 24 h at four different temperatures (25-40 °C with 5 °C intervals) using an ES-20/60 Orbital Shaker Incubator supplied by Biosan (Riga, Latvia). The temperature adjustment accuracy was 0.1 °C, and its variance during the daily cycle was ±0.5 °C. Moreover, the mixing of the samples at 60 rev/min was provided by the incubator. In the next step, the samples were filtered using a syringe with a PTFE filter with a […] pore size. All of the test tubes, syringes, and filters were preheated to the appropriate temperature to avoid the precipitation of dissolved coumarin. Finally, fixed amounts of the filtrate were transferred to test tubes, which were prefilled with a set amount of methanol, and samples prepared in this way were measured spectrophotometrically. The concentration of coumarin in the samples was determined through spectrophotometric measurements using an […] spectrophotometer from AOE Instruments (Shanghai, China). Spectra in the 190-700 nm wavelength range were recorded with a 1 nm resolution, and samples were diluted with methanol, which was also used as a reference. The absorbance values at 310 nm were used in conjunction with the calibration curve prepared earlier. Three samples were measured for each data point, and their concentrations were averaged and expressed as mole fractions.

- solubility expressed as molar fraction ([2]; 1-butanol, 25 °C): 16.95 ± 1.09 molar fraction ×10^3
- solubility expressed as molar fraction ([2]; 1-butanol, 30 °C): 34.87 ± 1.34 molar fraction ×10^3
- solubility expressed as molar fraction ([2]; 1-butanol, 35 °C): 60.64 ± 0.77 molar fraction ×10^3
- solubility expressed as molar fraction ([2]; 1-butanol, 40 °C): 94.59 ± 2.12 molar fraction ×10^3
- solubility expressed as molar fraction ([2]; 1-octanol, 25 °C): 19.18 ± 0.67 molar fraction ×10^3
- solubility expressed as molar fraction ([2]; 1-octanol, 30 °C): 37.37 ± 1.24 molar fraction ×10^3
- solubility expressed as molar fraction ([2]; 1-octanol, 35 °C): 67.23 ± 2.91 molar fraction ×10^3
- solubility expressed as molar fraction ([2]; 1-octanol, 40 °C): 104.05 ± 0.71 molar fraction ×10^3
- solubility expressed as molar fraction ([2]; 1-pentanol, 25 °C): 19.66 ± 0.28 molar fraction ×10^3
- solubility expressed as molar fraction ([2]; 1-pentanol, 30 °C): 42.95 ± 1.59 molar fraction ×10^3
- solubility expressed as molar fraction ([2]; 1-pentanol, 35 °C): 77.44 ± 0.55 molar fraction ×10^3
- solubility expressed as molar fraction ([2]; 1-pentanol, 40 °C): 126.01 ± 7.64 molar fraction ×10^3
- solubility expressed as molar fraction ([2]; 1-propanol, 25 °C): 41.02 ± 0.72 molar fraction ×10^3
- solubility expressed as molar fraction ([2]; 1-propanol, 30 °C): 74.27 ± 2.42 molar fraction ×10^3
- solubility expressed as molar fraction ([2]; 1-propanol, 35 °C): 121.65 ± 5.97 molar fraction ×10^3
- solubility expressed as molar fraction ([2]; 1-propanol, 40 °C): 181.10 ± 4.99 molar fraction ×10^3
- solubility expressed as molar fraction ([2]; 2-propanol, 25 °C): 30.17 ± 0.60 molar fraction ×10^3
- solubility expressed as molar fraction ([2]; 2-propanol, 30 °C): 60.35 ± 1.81 molar fraction ×10^3
- solubility expressed as molar fraction ([2]; 2-propanol, 35 °C): 101.22 ± 4.59 molar fraction ×10^3
- solubility expressed as molar fraction ([2]; 2-propanol, 40 °C): 154.88 ± 5.76 molar fraction ×10^3
- solubility expressed as molar fraction ([2]; ethanol, 25 °C): 49.43 ± 2.59 molar fraction ×10^3
- solubility expressed as molar fraction ([2]; ethanol, 30 °C): 90.16 ± 5.57 molar fraction ×10^3
- solubility expressed as molar fraction ([2]; ethanol, 35 °C): 142.45 ± 5.12 molar fraction ×10^3
- solubility expressed as molar fraction ([2]; ethanol, 40 °C): 210.96 ± 6.24 molar fraction ×10^3
- solubility expressed as molar fraction ([2]; methanol, 25 °C): 77.01 ± 4.68 molar fraction ×10^3
- solubility expressed as molar fraction ([2]; methanol, 30 °C): 127.52 ± 5.07 molar fraction ×10^3
- solubility expressed as molar fraction ([2]; methanol, 35 °C): 196.63 ± 7.30 molar fraction ×10^3
- solubility expressed as molar fraction ([2]; methanol, 40 °C): 286.50 ± 6.20 molar fraction ×10^3
Compound: O=c1ccc2ccccc2o1 [coumarin, 2H-1-benzopyran-2-one]
- aqueous solubility [1]: decreases with the increase of pH
